Experimental data taken from patent US20240343666A1, “PERINAPHTHENONE COMPOUND AND USE THEREOF” (INSTITUTE OF MEDICINAL BIOTECHNOLOGY, CHINESE ACADEMY OF …, priority 2021, published 2024).
Read-outs that look alike come from different tables or passages of the source.

Key:
[1] = target: influenza virus PA protein (UniProt P15659); type: cell-based; settings: read-out: PA remaining EC50
[2] = test system: influenza A virus (IAV) A/WSN/33 (H1N1); assay: microbe, parasite or virus in culture; type: cell-based; settings: read-out: Anti-influenza activity EC50
[3] = Cell viability assay (CCK-8); type: cell-based; settings: human; 293T-Gluc cells, CCK-8, 48 h
From the text: CCK-8 (Cell Counting Kit-8) kit is a rapid and highly sensitive detection kit based on WST-8 (water-soluble tetrazolium salt, chemical name: 2-(2-methyloxy-4-nitrophenyl)-3-(4-nitrophenyl)-5-(2,4-disulfophenyl)-2H-tetrazole monosodium salt) and widely applied to cell proliferation and cytotoxicity. WST-8 is a compound similar to MTT, and can be reduced by some dehydrogenases in mitochondria to produce orange-yellow formazan in the presence of an electron coupling reagent. The more and faster the cell proliferation, the darker the color; and the greater the cytotoxicity, the lighter the color. For the same cells, there is a linear relationship between the depth of color and the number of cells. The number of living cells can be indirectly reflected by measuring the light absorption value via an enzyme-linked immunosorbent assay instrument at a wavelength of 450 nm. 293T-Gluc cells were inoculated in a 96-well plate at 2.5×10^4 cells per well, and incubated in 100 μL of DMEM culture medium containing 10% FBS. 24 h after cell plating, 1 μL of the gradiently diluted test compound was added per well (the test compound was dissolved in DMSO and diluted with DMSO). Meanwhile, a blank control (only 100 μL of DMEM culture medium was added), a positive control (1 μL Ribavirin was added), and a negative control (1 μL DMSO was added) were set, and incubated at 37° C. for 48 h. The 96-well plate was taken out, and 10 μL of CCK-8 was added to each well. […] The experiment was repeated three times.

TRIM25 = TRIM25 (Homo sapiens, UniProt Q14258); assay: Biolayer interferometry (BLI) binding to TRIM25; settings: in vitro
TRIM25, sequence (Q14258 whole entry, species assumed): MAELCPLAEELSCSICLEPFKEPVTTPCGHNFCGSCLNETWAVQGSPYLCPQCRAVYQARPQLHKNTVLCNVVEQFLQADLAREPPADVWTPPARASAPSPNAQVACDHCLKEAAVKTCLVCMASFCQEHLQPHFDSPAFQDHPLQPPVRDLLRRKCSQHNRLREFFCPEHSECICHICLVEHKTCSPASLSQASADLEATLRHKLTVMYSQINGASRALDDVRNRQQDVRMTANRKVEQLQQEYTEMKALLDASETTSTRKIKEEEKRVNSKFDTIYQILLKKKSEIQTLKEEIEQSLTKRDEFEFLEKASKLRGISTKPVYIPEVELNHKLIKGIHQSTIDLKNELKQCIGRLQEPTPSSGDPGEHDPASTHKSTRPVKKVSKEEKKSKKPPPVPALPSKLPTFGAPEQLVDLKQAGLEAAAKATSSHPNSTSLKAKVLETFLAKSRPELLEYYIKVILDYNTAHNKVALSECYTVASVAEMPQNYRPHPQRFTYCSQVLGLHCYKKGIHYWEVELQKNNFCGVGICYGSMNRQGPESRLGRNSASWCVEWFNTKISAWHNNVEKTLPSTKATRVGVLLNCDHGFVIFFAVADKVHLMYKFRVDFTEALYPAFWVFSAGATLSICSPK
From the text: (§1) To further investigate the mechanism of degradation of PA protein by compound C1, the inventors tested the binding ability of the compound to TRIM25 protein and PA protein using biolayer interferometry (BLI). […] Meanwhile, the compounds also have the ability of binding PA in vitro.

PA protein [4] = target: T1, PA protein (Influenza A virus, UniProt P15659); assay: Biolayer interferometry (BLI) binding to PA; settings: in vitro
From the text: as §1

PA protein [5] = target: T1, PA protein; type: cell-based
PA protein [6] = target: T1, PA protein; assay: Ubiquitination of PA protein in HEK293T cells (immunoprecipitation, Western Blotting); type: cell-based
TRIM25 with PA protein = TRIM25 with PA protein (UniProt P15659+Q14258); assay: Interaction of TRIM25 with PA in HEK293T cells (co-immunoprecipitation); type: cell-based
PA protein [7] = target: T1, PA protein; assay: In vitro ubiquitination test; type: biochemical

Compound	DC50 [1] [nM]	EC50 [2] [nM]	CC50 at 48 h [3] [nM]	Kd (TRIM25) [nM]	EC50 ([2]; Influenza A virus, 24 h) [nM]	Kd (PA protein [4]) [nM]	Expression level of PA protein after treatment with proteasome inhibitor MG-132 (PA protein [5])	Restoration of PA protein after treatment with lysosome inhibitor ConA (PA protein [5])	Polyubiquitination level of PA protein in cells (PA protein [6])	Interaction of TRIM25 with PA protein (TRIM25 with PA protein)	Polyubiquitination level of PA protein in vitro (PA protein [7])
CC(C)=CC1C/C(=C/CC/C(C)=C/CC/C(C)=C/C[C@]2(O)C(=O)c3c(O)cc(C)c4c(O)c(C)c(O)c(c34)C2=O)CO1 (some centres unmarked) [Compound C4]	1150 ± 170	1250 ± 10	> 100000	12000 to 43000	–	–	–	–	–	–	–
C/C(=C\CC/C(C)=C/C[C@]1(O)C(=O)c2c(O)cc(C)c3c(O)c(C)c(O)c(c23)C1=O)CC/C=C(\C)CC[C@@H](O)C(C)(C)O [Compound C6]	2090 ± 520	2220 ± 40	> 100000	12000 to 43000	–	–	–	–	–	–	–
C/C(=C\CC/C(C)=C/C[C@]1(O)C(=O)c2c(O)cc(C)c3c(O)c(C)c(O)c(c23)C1=O)CC/C=C(\CO)CCC1OC(C)(C)OC1(C)C (some centres unmarked) [Compound C7]	1050 ± 190	780 ± 20	> 100000	12000 to 43000	450 to 2220	–	–	–	–	–	–
C/C(=C\C[C@]1(O)C(=O)c2c(O)cc(C)c3c(O)c(C)c(O)c(c23)C1=O)CC/C=C(\C)CCC(O)[C@@]1(C)CC[C@H](C(C)(C)O)O1 (relative stereo) [Compound C10]	880 ± 80	1220 ± 10	> 100000	12000 to 43000	–	–	–	–	–	–	–
NC(=O)c1ncn([C@@H]2O[C@H](CO)[C@@H](O)[C@H]2O)n1 [Ribavirin, reference compound]	–	–	> 100000	–	27800 ± 650	–	–	–	–	–	–
CC(C)=CCC/C(=C/CC/C(C)=C/CC/C(C)=C/C[C@]1(O)C(=O)c2c(O)cc(C)c3c(O)c(C)c(O)c(c23)C1=O)C(=O)O [Compound C12]	1070 ± 100	920 ± 20	> 100000	12000 to 43000	–	–	–	–	–	–	–
C/C(=C\C[C@]1(O)C(=O)c2c(O)cc(C)c3c(O)c(C)c(O)c(c23)C1=O)CC/C=C(\C)CCC(O)[C@@]1(C)CC[C@@H](C(C)(C)O)O1 (some centres unmarked) [Compound C9]	1040 ± 80	1020 ± 50	> 100000	12000 to 43000	–	–	–	–	–	–	–
C/C(=C\CC/C(C)=C/C[C@]1(O)C(=O)c2c(O)cc(C)c3c(O)cc(O)c(c23)C1=O)CC/C=C(\CO)CC[C@@H](O)C(C)(C)O [Compound C11]	620 ± 150	910 ± 80	> 100000	12000 to 43000	–	–	–	–	–	–	–
C/C(=C\CC/C(C)=C/C[C@]1(O)C(=O)c2c(O)cc(C)c3c(O)c(C)c(O)c(c23)C1=O)CC/C=C(\CO)CC[C@@H](O)C(C)(C)O [Compound C1]	440 ± 90	450 ± 40	> 100000	12000 to 43000	450 to 2220	11000	almost completely restored	hardly affected	can promote the polyubiquitination level of PA protein	can promote the interaction of TRIM25 with PA protein	can promote the polyubiquitination level of PA protein in vitro
CC(C)=CCC/C(C=O)=C\CC/C(C)=C/CC/C(C)=C/C[C@]1(O)C(=O)c2c(O)cc(C)c3c(O)c(C)c(O)c(c23)C1=O [Compound C3]	1140 ± 260	1420 ± 20	> 100000	12000 to 43000	–	–	–	–	–	–	–
CC(=O)OC(C=C(C)C)C/C(C)=C/CC/C(C)=C/CC/C(C)=C/C[C@]1(O)C(=O)c2c(O)cc(C)c3c(O)c(C)c(O)c(c23)C1=O (some centres unmarked) [Compound C5]	730 ± 230	570 ± 80	> 100000	12000 to 43000	450 to 2220	–	–	–	–	–	–
CC(C)=CCC/C(=C/CC/C(C)=C/CC/C(C)=C/C[C@]1(O)C(=O)c2c(O)cc(C)c3c(O)c(C)c(O)c(c23)C1=O)CO [Compound C2]	650 ± 120	580 ± 60	> 100000	12000 to 43000	450 to 2220	58000	–	–	–	–	–
C/C(=C\CC/C(C)=C/C[C@]1(O)C(=O)c2c(O)cc(C)c3c(O)c(C)c(O)c(c23)C1=O)C/C=C/C1(C)CCC(C(C)(C)O)O1 (some centres unmarked) [Compound C14]	1020 ± 30	1060 ± 90	> 100000	12000 to 43000	–	–	–	–	–	–	–
C/C(=C\CC/C(C)=C/C[C@]1(O)C(=O)c2c(O)cc(C)c3c(O)c(C)c(O)c(c23)C1=O)CC/C=C(\CCC1OC(C)(C)OC1(C)C)C(=O)O (some centres unmarked) [Compound C8]	800 ± 120	550 ± 30	> 100000	12000 to 43000	450 to 2220	–	–	–	–	–	–
C/C(=C\CC/C(C)=C/C[C@]1(O)C(=O)c2c(O)cc(C)c3c(O)c(C)c(O)c(c23)C1=O)CC/C=C1/CCC(C(C)(C)O)OC1 (some centres unmarked) [Compound C13]	710 ± 20	650 ± 10	> 100000	12000 to 43000	450 to 2220	–	–	–	–	–	–
